Test results reported in US20260242490A1, “METHODS OF TREATING NAFLD AND NASH” (CytoDyn Inc., priority 2022, published 2026).
“And” between values parts separate entries of the source, which are not always exact repeats. Equal entries are not always repeated. Marks after values point to notes of the source that are not given here.

Columns and labels:
[1] = system: NSG mice fed a high fat NASH-inducing diet; test: Humanized NSG mice on high fat NASH-inducing diet, Oil Red O liver sections; type: in vivo, mouse
Experimental: 16 male were first humanized by intravenous inoculation with normal human umbilical cord blood cells. […] Mice were switched to a high fat (52%), high cholesterol (1.25%) diet. (FPC diet: fructose, palmitate, cholesterol, trans-fat; Envigo-Teklad TD.160785). […] Mice were euthanized at 16 weeks after initiation of the high fat, high cholesterol diet.
Liver sections were analyzed for indicators of NAFLD. […] Regions of interest were identified in micrographs and digitized using an Aperio AT2 slide scanner (Leica Biosystems), then analyzed using QuPath v0.2.01 imaging software. […] Percent positivity in IgG treated group was 9.751±1.789. […] Student's t test p=0.014. Steatosis was numerically scored following a semi-quantitative pathological standard.

[2] = system: hepatic fat fraction; test: CDI-NASH-01 clinical study, MRI-PDFF; type: in vivo, human; details: for MRI PDFF: change baseline to week 14; for Mean percent change from baseline PDFF: 700 mg SC weekly (n=22), baseline to week 14
Experimental: (§1) Eligible patients included adults aged between 18 to 75 years (inclusive), with evidence of phenotype nonalcoholic steatohepatitis (NASH). […] A stable body weight (±5%) was required during the 6 months prior to screening. Exclusion criteria include but were not limited to HIV, autoimmune hepatitis, excess alcohol use, viral hepatitis, and prior or pending liver transplantation. No patients in the 350 mg study were concomitantly treated with semaglutide, while 18% of patients in the placebo group were concomitantly treated with semaglutide.
(§2) There were 21 patients in cT1 analysis and 22 for PDFF analysis. One patient obtained PDFF at End of Treatment but MRI for cT1 despite repeat was not able to quality (by 3 cuts) so no results for cT1 were obtained on that patient.
The primary efficacy objective of the study was the change from baseline in hepatic fat fraction, assessed by magnetic resonance imaging-derived proton density fat fraction (MRI-PDFF) at week 14.

[3] = system: fibro-inflammatory activity in the liver; test: CDI-NASH-01 clinical study, MRI cT1; type: in vivo, human; details: for Mean change cT1: baseline to week 14; for MRI cT1: change baseline to week 14
Experimental: as §1, §2
(§3) The secondary efficacy objective was the change from baseline in fibro-inflammatory activity in the liver as assessed by cT1 (corrected T1) at week 14. cT1 is obtained by multiparametric magnetic resonance imaging of the liver and is a quantitative metric for assessing a composite of liver inflammation and fibrosis, expressed in milliseconds (msec). Additional objectives were change from baseline in LFT, chemokine and cytokine levels and key biomarkers of inflammation to week 14. In particular, change in serum cK18 and K18 by M30-M65 ELISA was assessed at week 14.

[4] = system: LFT, chemokine and cytokine levels and key biomarkers of inflammation; test: CDI-NASH-01 clinical study, serum analysis of biomarkers; type: in vivo, human
Source text: as §3

[5] = system: serum cK18 and K18; test: CDI-NASH-01 clinical study, M30-M65 ELISA; type: in vivo, human
Source text: as §3

[6] = CDI-NASH-01 clinical study, safety and tolerability; type: in vivo, human
Source text: The secondary objective of this study was to assess the safety and tolerability of leronlimab in adult patients diagnosed with NASH compared to placebo.
(See FIG. 3 and FIG. 4.) There was no grade 3 or higher drug related treatment emergent adverse event.

[7] = system: NASH patients by CCR5 haplotype; test: CDI-NASH-01 clinical study, treatment outcome by CCR5 haplotype; type: in vivo, human
Source text: CCR5 haplotype was investigated for 5 patients. Haplotypes with very high transcription and thus high cell surface expression of CCR5 include HHE/HHE and HHG1/HHG1. High transcription alleles when combined with a null allele delta 32 or HHG2 will default to the heterozygous allele such that HHE/HHG2 and HHG1/HHG2 would also be high transcribers for CCR5.
CCR5 transcriptional activity and disease progression can be slowed or accelerated. Surface CCR5 expression level also played a part in NASH disease progression and specific CCR5 haplotypes correlated with dose and treatment outcomes.
All patients appeared to benefit from a dose that lowered RANTES (CCL5) levels to approximately zero.

[8] = target: CCR5 (Homo sapiens, UniProt P51681); details: CCR5+ cells; cited from earlier work
Chain of CCR5 (P51681 whole entry): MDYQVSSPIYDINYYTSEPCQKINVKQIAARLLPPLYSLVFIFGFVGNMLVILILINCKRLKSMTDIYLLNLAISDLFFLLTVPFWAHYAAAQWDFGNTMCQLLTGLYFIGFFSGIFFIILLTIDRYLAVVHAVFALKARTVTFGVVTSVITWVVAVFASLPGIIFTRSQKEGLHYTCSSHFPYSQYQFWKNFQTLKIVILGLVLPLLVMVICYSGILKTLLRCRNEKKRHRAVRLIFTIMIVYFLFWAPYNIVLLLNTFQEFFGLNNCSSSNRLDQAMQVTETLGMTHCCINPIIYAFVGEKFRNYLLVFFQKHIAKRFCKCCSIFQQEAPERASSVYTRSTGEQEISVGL

[9] = system: CCR5-expressing cells; details: cited from earlier work
[10] = system: fibro-inflammatory activity in the liver; test: CDI-NASH-01 clinical study, MRI cT1; type: in vivo, human; details: 350 mg SC weekly, all patients (n = 22), change baseline to week 14
[11] = system: HIV-1; details: in vitro and hu-PBL-SCID mouse model; at concentrations that do not affect CCR5 chemokine receptor activity; cited from earlier work
[12] = 350 mg SC weekly, baseline cT1 ≥ 875 (n = 14)
[13] = 350 mg SC weekly, baseline cT1 ≥ 950 (n = 8)
[14] = 350 mg, patients with baseline elevated ALT (n=8)
[15] = 700 mg group with genetic haplotypes known to over produce CCR5, post hoc analysis
[16] = 700 mg, haplotypes associated with increased CCR5 expression
[17] = 350 mg SC weekly, all patients (n = 22), change baseline to week 14
[18] = 350 mg SC weekly, baseline cT1 ≥ 875 (n = 14), change baseline to week 14
[19] = 350 mg SC weekly, baseline cT1 ≥ 950 (n = 8), change baseline to week 14
[20] = 700 mg, patients with increased CCR5 cell surface levels
[21] = placebo patients concomitantly treated with semaglutide (n = 5)
[22] = placebo patients concomitantly treated with semaglutide (n = 5), change baseline to week 14

## leronlimab: humanized IgG4 monoclonal antibody that binds to CCR5; humanized version of murine antibody PA14
[1]; 2 mg i.p. twice weekly
  fatty liver development: inhibited
[1]; 2 mg i.p. twice weekly vs IgG
  presence of fat in the liver, Oil Red O stain: markedly reduced
[2]; 350 mg SC weekly, all patients (n = 22)
  MRI PDFF: significantly reduced
[2]; [12]
  MRI PDFF: −4.37% and −4.38* %
[2]; [13]
  MRI PDFF: −9.39% and −9.27* %
[2]; [14]
  PDFF change: −18%
[2]
  Mean percent change from baseline PDFF: +3.75%
[2]; listed as Leronlimab
  Mean percent change from baseline PDFF: did not reduce
[2]; [15]
  mean percent PDFF change: −27.9%
[2]; [16]
  PDFF decrease: 28%
  steatosis: Improvements
[3]; 350 mg SC weekly, all patients
  Mean change cT1: -24.38 ms
[3]; [12]
  MRI cT1: −42.00**
[3]; [13]
  MRI cT1: −68.86**
[3]; 350 mg subgroup with baseline cT1≥875 ms
  Mean change cT1: -42.00 ms
[3]; [14]
  cT1 change: -69 ms
[3]; 700 mg SC weekly
  Mean change cT1: -2.73 ms
[3]; 700 mg SC weekly, listed as Leronlimab
  Mean change cT1: did not reduce
[3]; [15]
  mean cT1 change: -45.4 ms
[4]; [17]
  Alpha-2-Mactoglobulin s: 8.96 mg/mL
  Gamma Glutamyl Transferase (GGT) s: −1.3 U/L
[4]; [18]
  Alkaline Phosphatase: −3.16 IU/L
  Apolipoprotein A1S: 9.2 mg/dL
  Aspartate Aminotransferase (AST) s: −5.5 U/L
  CCL2 (Monocyte Chemotactic Protein-1): -95.53 pg/mL
  CCL3 (Macrophage Inflammatory Protein-1 Alpha): −7.14*** pg/mL
  CCL5 (RANTES): −7.8
  CCL11 (Eosinophil Chemotactic Protein): -15.21 pg/mL
  CCL18 (Macrophage Inflammatory Protein-4): −32.1** ng/mL
  EN RAGE (Receptor Advanced Glycation End-Products): −115.50** ng/mL
  IL-1 (Interleukin 1) Beta: 0.00 pg/mL
  IL-6 (Interleukin 6): -0.44 pg/mL
  IL-8 (Interleukin 8): −12.6*** pg/mL
  IR-IRA (Interleukin 1 Receptor Antagonist): −34.79** pg/mL
  TIMP-1 (Tissue Inhibitor Metalloproteinases 1): -17.26 ng/mL
  TNF Receptor 2 (STNFR-2): −2.0*** ng/mL
  VCAM (Vascular Cell Adnhesion Molecule): −94.2*** ng/mL
[4]; [19]
  Alkaline Phosphatase: −7.25* IU/L
  Apolipoprotein A1S: 2.3 mg/dL
  Aspartate Aminotransferase (AST) s: −13.0 U/L
  CCL2 (Monocyte Chemotactic Protein-1): -179.0 pg/mL
  CCL3 (Macrophage Inflammatory Protein-1 Alpha): −8.0*** pg/mL
  CCL5 (RANTES): −25.3
  CCL11 (Eosinophil Chemotactic Protein): -16.25 pg/mL
  CCL18 (Macrophage Inflammatory Protein-4): −48.0** ng/mL
  EN RAGE (Receptor Advanced Glycation End-Products): −169.0* ng/mL
  Gamma Glutamyl Transferase (GGT) s: −6.13 U/L
  IL-1 (Interleukin 1) Beta: 0.00 pg/mL
  IL-6 (Interleukin 6): -0.30 pg/mL
  IL-8 (Interleukin 8): −4.25** pg/mL
  IR-IRA (Interleukin 1 Receptor Antagonist): -26.25 pg/mL
  TIMP-1 (Tissue Inhibitor Metalloproteinases 1): -25.3 ng/mL
  TNF Receptor 2 (STNFR-2): −2.7*** ng/mL
  VCAM (Vascular Cell Adnhesion Molecule): −81.0* ng/mL
[4]; [14]
  ALT, mean change: −29.3 U/L
[4]; 350 mg, patients with baseline elevated ALT (n=8), baseline 83.7
  ALT, mean after treatment: 54.3 U/L
[4]; 700 mg SC weekly
  CCL2 level: balanced or increased levels
  CCL3 level: balanced or increased levels
  CCL11 level: balanced or increased levels
  CCL18 level: balanced or increased levels
[4]; [16]
  Apolipoprotein A1: Improvements
  HDL: strong increase
[5]; 350 mg group
  M65 ELISA (cK18 and K18), mean change baseline to week 14: −8.18 U/L
[5]; 350 mg group, baseline 340.55
  M65 ELISA (cK18 and K18), mean at week 14: 332.4 U/L
[5]; [16]
  CK18: statistically significant reductions
[5]; [20]
  M30: statistically significant reductions
  M65: statistically significant reductions
[6]; Part 1 (700 mg) and Part 2 (350 mg)
  tolerability: generally well tolerated
[6]; Part 1 and Part 2
  grade 3 or higher drug related treatment emergent adverse event: no
[6]; not associated with discontinuation
  Injection site reaction and mild diarrhea, frequency vs placebo: occurred more frequently
[7]; 350 mg, haplotypes correlated with low to normal surface expression of CCR5
  treatment effect: benefited
[7]; 700 mg or 350 mg, haplotypes correlated with high surface expression of CCR5, greater at 700 mg
  treatment effect: positive effects
[7]; 700 mg, haplotypes correlated with low to normal surface expression of CCR5
  treatment effect: negative effects
[8]
  IC50 of CCL5-induced calcium mobilization: 45 µg/mL
[9]
  CCR5 surface expression / depletion of CCR5-expressing cells: does not downregulate CCR5 surface expression or deplete CCR5-expressing cells
[10]
  MRI cT1: significantly reduced
[11]
  HIV-1 entry and replication: potently inhibits

## semaglutide [Placebo + Semaglutide, reference compound]
[2]; [21]
  MRI PDFF: −1.85%
[3]; [21]
  MRI cT1: −4.40
[4]; [22]
  Alanine Aminotransferase (ALT) s: −3.6 U/L
  Alpha-2-Mactoglobulin s: -11.6 mg/mL
  Apolipoprotein A1 s: -4.0 mg/dL
  Aspartate Aminotransferase (AST) s: −2.8 U/L
  CCL2 (Monocyte Chemotactic Protein-1): -6.00 pg/mL
  CCL3 (Macrophage Inflammatory Protein-1 Alpha): -1.2 pg/mL
  CCL5 (RANTES): 1.2
  CCL11 (Eosinophil Chemotactic Protein): 0.20 pg/mL
  CCL18 (Macrophage Inflammatory Protein-4): 4.80 ng/mL
  High Density Lipoprotein Cholesterol (HDL): -1.0 mg/dL
  IL-6 (Interleukin 6): 0.34 pg/mL
  IR-IRA (Interleukin 1 Receptor Antagonist): 26.6 pg/mL
  TNF Receptor 2 (STNFR-2): 0.52 ng/mL
  VCAM (Vascular Cell Adnhesion Molecule): -35.6 ng/mL
  VEGF (Vascular Endothelian Growth Factor): -11.2 pg/mL
